# Data from the supplement of paper PMC10307832.
# Assays:
# Assay in all cases: relative viability (nuclei count vs DMSO), 5 days (fraction); higher = more cells survive
# [1] = test system: ABC-1
# In short: (§1)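 Lung cancer cell lines in 1536-well plates were dosed by pin tool the day after seeding, either with one drug alone or with a fixed anchor-drug dose plus five library-drug doses (not always all listed) in √10 steps. After 5 days, cells were fixed and their nuclei stained in one step (final 0.05% Triton X-100, 1% formaldehyde, 1 ug/ml Hoechst), then counted on 4× images. Relative viability is the nuclei count in treated wells divided by that in vehicle wells. Values are medians of duplicate plates.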
# [2] = test system: UMC-11
# In short: as §1
# [3] = test system: NCI-H1944
# In short: as §1
# [4] = test system: NCI-H2009
# In short: as §1
# [5] = test system: COR-L23
# In short: as §1
# [6] = test system: LC-2-ad
# In short: as §1
# [7] = test system: EMC-BAC-2
# In short: as §1
# [8] = test system: HCC-15
# In short: as §1
# [9] = test system: NCI-H1734
# In short: as §1
# [10] = test system: HCC-366
# In short: as §1
# [11] = test system: HCC-78
# In short: as §1
# [12] = test system: HARA
# In short: as §1
smiles,measurement,setting,value
CC1(C)CCC(c2ccc(Cl)cc2)=C(CN2CCN(c3ccc(C(=O)NS(=O)(=O)c4ccc(N[C@H](CCN5CCOCC5)CSc5ccccc5)c(S(=O)(=O)C(F)(F)F)c4)cc3)CC2)C1 [Navitoclax] + COc1cc2c(Oc3ccc(NC(=O)C4(C(=O)Nc5ccc(F)cc5)CC4)cc3F)ccnc2cc1OCCCN1CCOCC1 [Foretinib] (partner 0.25 µM),relative viability,[1]; first compound 0.05 µM,1.12
same,relative viability,[1]; first compound 0.1581 µM,1.07
same,relative viability,[1]; first compound 0.5 µM,1.05
same,relative viability,[2]; first compound 0.005 µM,0.976
same,relative viability,[2]; first compound 0.01581 µM,1.14
same,relative viability,[2]; first compound 0.05 µM,1.18
same,relative viability,[2]; first compound 0.1581 µM,0.937
same,relative viability,[2]; first compound 0.5 µM,0.66
same,relative viability,[3]; first compound 0.005 µM,0.872
same,relative viability,[3]; first compound 0.01581 µM,0.945
same,relative viability,[3]; first compound 0.05 µM,0.745
same,relative viability,[3]; first compound 0.1581 µM,0.851
same,relative viability,[3]; first compound 0.5 µM,0.741
same,relative viability,[4]; first compound 0.005 µM,1.22
same,relative viability,[4]; first compound 0.01581 µM,1.29
same,relative viability,[4]; first compound 0.05 µM,1.26
same,relative viability,[4]; first compound 0.1581 µM,1.26
same,relative viability,[4]; first compound 0.5 µM,1.27
same,relative viability,[5]; first compound 0.005 µM,0.957
same,relative viability,[5]; first compound 0.01581 µM,1.13
same,relative viability,[5]; first compound 0.05 µM,1.02
same,relative viability,[5]; first compound 0.1581 µM,0.938
same,relative viability,[5]; first compound 0.5 µM,0.947
same,relative viability,[6]; first compound 0.005 µM,0.837
same,relative viability,[6]; first compound 0.01581 µM,1.29
same,relative viability,[6]; first compound 0.05 µM,1.02
same,relative viability,[6]; first compound 0.1581 µM,0.871
same,relative viability,[6]; first compound 0.5 µM,0.887
same,relative viability,[7]; first compound 0.005 µM,1.07
same,relative viability,[7]; first compound 0.01581 µM,1.14
same,relative viability,[7]; first compound 0.05 µM,0.96
same,relative viability,[7]; first compound 0.1581 µM,1.01
same,relative viability,[7]; first compound 0.5 µM,1.05
same,relative viability,[8]; first compound 0.005 µM,1.01
same,relative viability,[8]; first compound 0.01581 µM,1.05
same,relative viability,[8]; first compound 0.05 µM,0.977
same,relative viability,[8]; first compound 0.1581 µM,0.982
same,relative viability,[8]; first compound 0.5 µM,0.918
same,relative viability,[9]; first compound 0.005 µM,0.887
same,relative viability,[9]; first compound 0.01581 µM,0.941
same,relative viability,[9]; first compound 0.1581 µM,0.831
same,relative viability,[9]; first compound 0.5 µM,0.906
same,relative viability,[10]; first compound 0.005 µM,0.98
same,relative viability,[10]; first compound 0.01581 µM,0.82
same,relative viability,[10]; first compound 0.1581 µM,1
same,relative viability,[10]; first compound 0.5 µM,0.982
same,relative viability,[11]; first compound 0.005 µM,0.596
same,relative viability,[11]; first compound 0.01581 µM,0.663
same,relative viability,[11]; first compound 0.1581 µM,0.591
same,relative viability,[11]; first compound 0.5 µM,0.595
same,relative viability,[12]; first compound 0.005 µM,0.923
same,relative viability,[12]; first compound 0.01581 µM,1.05
same,relative viability,[12]; first compound 0.1581 µM,0.877
same,relative viability,[12]; first compound 0.5 µM,0.863
